{"source": "patent US20250171457A1", "about": "“NITROGEN-CONTAINING HETEROCYCLIC COMPOUND HAVING NRF2 ACTIVATION EFFECT” (CHUGAI SEIYAKU KABUSHIKI KAISHA, priority 2022, published 2025)"}
{"test_system": "Nrf2 transcriptional activity (pARE-Luc reporter) in HepG2 cells", "test": "In vitro Nrf2 transcriptional activity measurement by ARE-dependent reporter assay in HepG2 cell", "format": "cell-based, human", "conditions": "Homo sapiens; HepG2 cells transfected with pARE-Luc, 4 hours at 37° C.; luciferase activity of Example 1-54 or Example 17-23 at 3.75 μM defined as 100%", "how_it_was_run": "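HepG2 cells transfected with pGL4.37 (pARE-Luc), replated onto compound and incubated 4 h at 37° C; luciferase read by Bright-Glo luminescence. Response normalized to 100% set by a reference compound at 3.75 μM; EC50 from dose-response curve.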", "units": {"EC50": "nM"}}
{"smiles": "O=C(O)c1cc(F)c(-c2cccc3c2OCN(C(=O)c2c(Cl)cc(N4CCN(CC(F)F)CC4)cc2Cl)C3)cc1N1C2CCC1COC2", "note": "[Compound 8-2, 4-[3-[2,6-Dichloro-4-[4-(2,2-difluoroethyl)piperazin-1-yl]benzoyl]-2,4-dihydro-1,3-benzoxazin-8-yl]-5-fluoro-2-(3-oxa-8-azabicyclo[3.2.1]octan-8-yl)benzoic acid]", "EC50": 4}
{"smiles": "COCCN1CCN(c2cc(Cl)c(C(=O)N3COc4c(cccc4-c4cc(N5C6CCC5COC6)c(C(=O)O)cc4F)C3)c(Cl)c2)CC1(C)C", "note": "[Compound 8-3, 4-[3-[2,6-Dichloro-4-[4-(2-methoxyethyl)-3,3-dimethylpiperazin-1-yl]benzoyl]-2,4-dihydro-1,3-benzoxazin-8-yl]-5-fluoro-2-(3-oxa-8-azabicyclo[3.2.1]octan-8-yl)benzoic acid]", "EC50": 2.6}
{"smiles": "COCCN1[C@H](C)CN(c2cc(Cl)c(C(=O)N3COc4c(cccc4-c4cc(N5C6CCC5COC6)c(C(=O)O)cc4F)C3)c(Cl)c2)C[C@@H]1C", "note": "[Compound 8-4, 4-[3-[2,6-Dichloro-4-[meso-4-(2-methoxyethyl)-3,5-dimethylpiperazin-1-yl]benzoyl]-2,4-dihydro-1,3-benzoxazin-8-yl]-5-fluoro-2-(3-oxa-8-azabicyclo[3.2.1]octan-8-yl)benzoic acid]", "EC50": 3.6}
{"smiles": "COCCN1CCN(c2cc(Cl)c(C(=O)N3COc4c(cccc4-c4cc(N5C6CCC5COC6)c(C(=O)O)cc4F)C3)c(Cl)c2)CC1C", "note": "[Compound 8-5, 4-[3-[2,6-Dichloro-4-[(3S)-4-(2-methoxyethyl)-3-methylpiperazan-1-yl]benzoyl]-2,4-dihydro-1,3-benzoxazin-8-yl]-5-fluoro-2-(3-oxa-8-azabicyclo[3.2.1]octan-8-yl)benzoic acid]", "EC50": 2.4}
{"smiles": "COCCN1CC[C@H](Oc2cc(Cl)c(C(=O)N3COc4c(cccc4-c4cc(N5CCOCC5)c(C(=O)O)cc4F)C3)c(Cl)c2)C1", "note": "[Compound 8-6, 4-[3-[2,6-Dichloro-4-[(3S)-1-(2-methoxyethyl)pyrrolidin-3-yl]oxybenzoyl]-2,4-dihydro-1,3-benzoxazin-8-yl]-5-fluoro-2-morpholin-4-ylbenzoic acid]", "EC50": 2.7}
{"smiles": "COCCN1CCC[C@@H](Oc2cc(Cl)c(C(=O)N3COc4c(cccc4-c4cc(N5CCOCC5)c(C(=O)O)cc4F)C3)c(Cl)c2)C1", "note": "[Compound 8-7, 4-[3-[2,6-Dichloro-4-[(3R)-1-(2-methoxyethyl)piperidin-3-yl]oxybenzoyl]-2,4-dihydro-1,3-benzoxazin-8-yl]-5-fluoro-2-morpholin-4-ylbenzoic acid]", "EC50": 2.1}
{"smiles": "O=C(O)c1cc(F)c(-c2cccc3c2OCN(C(=O)c2c(Cl)cc(OC4CN(CC(F)(F)F)C4)cc2Cl)C3)cc1N1C2CCC1COC2", "note": "[Compound 8-8, 4-[3-[2,6-Dichloro-4-[1-(2,2,2-trifluoroethyl)azetidin-3-yl]oxybenzoyl]-2,4-dihydro-1,3-benzoxazin-8-yl]-5-fluoro-2-(3-oxa-8-azabicyclo[3.2.1]octan-8-yl)benzoic acid]", "EC50": 4.8}
{"smiles": "COCCN1CC2(CCN(c3cc(Cl)c(C(=O)N4COc5c(cccc5-c5cc(N6C7CCC6COC7)c(C(=O)O)cc5F)C4)c(Cl)c3)C2)C1", "note": "[Compound 8-9, 4-[3-[2,6-Dichloro-4-[2-(2-methoxyethyl)-2,7-diazaspiro[3.4]octan-7-yl]benzoyl]-2,4-dihydro-1,3-benzoxazin-8-yl]-5-fluoro-2-(3-oxa-8-azabicyclo[3.2.1]octan-8-yl)benzoic acid]", "EC50": 9.5}
{"smiles": "CN1CCOC2(C1)CN(c1cc(Cl)c(C(=O)N3COc4c(cccc4-c4cc(N5C6CCC5COC6)c(C(=O)O)cc4F)C3)c(Cl)c1)C2", "note": "[Compound 9-1, 4-[3-[2,6-Dichloro-4-(8-methyl-5-oxa-2,8-diazaspiro[3.5]nonan-2-yl)benzoyl]-2,4-dihydro-1,3-benzoxazin-8-yl]-5-fluoro-2-(3-oxa-8-azabicyclo[3.2.1]octan-8-yl)benzoic acid]", "EC50": 3.5}
{"smiles": "O=C(O)c1cc(F)c(-c2cccc3c2OCN(C(=O)c2c(Cl)cc(N4CC5(C4)CN(C4CC(F)(F)C4)C5)cc2Cl)C3)cc1N1C2CCC1COC2", "note": "[Compound 9-2, 4-[3-[2,6-Dichloro-4-[2-(3,3-difluorocyclobutyl)-2,6-diazaspiro[3.3]heptan-6-yl]benzoyl]-2,4-dihydro-1,3-benzoxazin-8-yl]-5-fluoro-2-(3-oxa-8-azabicyclo[3.2.1]octan-8-yl)benzoic acid]", "EC50": 7.4}
{"smiles": "O=C(O)c1cc(F)c(-c2cccc3c2OCN(C(=O)c2c(Cl)cc(N4CC5(C4)CN(C4COC4)C5)cc2Cl)C3)cc1N1C2CCC1COC2", "note": "[Compound 9-3, 4-[3-[2,6-Dichloro-4-[2-(oxetan-3-yl)-2,6-diazaspiro[3.3]heptan-6-yl]benzoyl]-2,4-dihydro-1,3-benzoxazin-8-yl]-5-fluoro-2-(3-oxa-8-azabicyclo[3.2.1]octan-8-yl)benzoic acid]", "EC50": 19}
{"smiles": "O=C(O)c1cc(F)c(-c2cccc3c2OCN(C(=O)c2c(Cl)cc(N4CC5(C4)CN(C4CC4)C5)cc2Cl)C3)cc1N1C2CCC1COC2", "note": "[Compound 9-4, 4-[3-[2,6-Dichloro-4-(2-cyclopropyl-2,6-diazaspiro[3.3]heptan-6-yl)benzoyl]-2,4-dihydro-1,3-benzoxazin-8-yl]-5-fluoro-2-(3-oxa-8-azabicyclo[3.2.1]octan-8-yl)benzoic acid]", "EC50": 7.5}
{"smiles": "CN1CCN(c2cc(Cl)c(C(=O)N3COc4c(cccc4-c4cc(N5C6CCC5COC6)c(C(=O)O)cc4F)C3)c(Cl)c2)C2CC21", "note": "(centres unmarked) [Compound 9-5, 4-[3-[2,6-Dichloro-4-(5-methyl-2,5-diazabicyclo[4.1.0]heptan-2-yl)benzoyl]-2,4-dihydro-1,3-benzoxazin-8-yl]-5-fluoro-2-(3-oxa-8-azabicyclo[3.2.1]octan-8-yl)benzoic acid]", "EC50": 4.6}
{"smiles": "C[C@@H]1CN(c2cc(Cl)c(C(=O)N3COc4c(cccc4-c4cc(N5C6CCC5COC6)c(C(=O)O)cc4F)C3)c(Cl)c2)[C@@H](C)CN1C", "note": "[Compound 9-6, 4-[3-[2,6-Dichloro-4-[(2S,5R)-2,4,5-trimethylpiperazin-1-yl]benzoyl]-2,4-dihydro-1,3-benzoxazin-8-yl]-5-fluoro-2-(3-oxa-8-azabicyclo[3.2.1]octan-8-yl)benzoic acid]", "EC50": 5.7}
{"smiles": "CN1C2CCC1CN(c1cc(Cl)c(C(=O)N3COc4c(cccc4-c4cc(N5C6CCC5COC6)c(C(=O)O)cc4F)C3)c(Cl)c1)C2", "note": "[Compound 9-7, 4-[3-[2,6-Dichloro-4-(8-methyl-3,8-diazabicyclo[3.2.1]octan-3-yl)benzoyl]-2,4-dihydro-1,3-benzoxazin-8-yl]-5-fluoro-2-(3-oxa-8-azabicyclo[3.2.1]octan-8-yl)benzoic acid]", "EC50": 14}
{"smiles": "CN1CC2CCC(C1)N2c1cc(Cl)c(C(=O)N2COc3c(cccc3-c3cc(N4C5CCC4COC5)c(C(=O)O)cc3F)C2)c(Cl)c1", "note": "[Compound 9-8, 4-[3-[2,6-Dichloro-4-(3-methyl-3,8-diazabicyclo[3.2.1]octan-8-yl)benzoyl]-2,4-dihydro-1,3-benzoxazin-8-yl]-5-fluoro-2-(3-oxa-8-azabicyclo[3.2.1]octan-8-yl)benzoic acid]", "EC50": 3.5}
{"smiles": "C[C@@H]1CN(c2cc(Cl)c(C(=O)N3COc4c(cccc4-c4cc(N5C6CCC5COC6)c(C(=O)O)cc4F)C3)c(Cl)c2)[C@H](C)CN1C", "note": "[Compound 9-9, 4-[3-[2,6-Dichloro-4-[(2R,5R)-2,4,5-trimethylpiperazin-1-yl]benzoyl]-2,4-dihydro-1,3-benzoxazin-8-yl]-5-fluoro-2-(3-oxa-8-azabicyclo[3.2.1]octan-8-yl)benzoic acid]", "EC50": 1.5}
{"smiles": "CN1CC2CC(C1)N2c1cc(Cl)c(C(=O)N2COc3c(cccc3-c3cc(N4C5CCC4COC5)c(C(=O)O)cc3F)C2)c(Cl)c1", "note": "[Compound 9-10, 4-[3-[2,6-Dichloro-4-(3-methyl-3,6-diazabicyclo[3.1.1]heptan-6-yl)benzoyl]-2,4-dihydro-1,3-benzoxazin-8-yl]-5-fluoro-2-(3-oxa-8-azabicyclo[3.2.1]octan-8-yl)benzoic acid]", "EC50": 8.8}
{"smiles": "C[C@@H]1CN(C)[C@@H](C)CN1c1cc(Cl)c(C(=O)N2COc3c(cccc3-c3cc(N4C5CCC4COC5)c(C(=O)O)cc3F)C2)c(Cl)c1", "note": "[Compound 9-11, 4-[3-[2,6-Dichloro-4-[(2R,5S)-2,4,5-trimethylpiperazin-1-yl]benzoyl]-2,4-dihydro-1,3-benzoxazin-8-yl]-5-fluoro-2-(3-oxa-8-azabicyclo[3.2.1]octan-8-yl)benzoic acid]", "EC50": 19}
{"smiles": "C[C@H]1CN(C)CCN1c1cc(Cl)c(C(=O)N2COc3c(cccc3-c3cc(N4C5CCC4COC5)c(C(=O)O)cc3F)C2)c(Cl)c1", "note": "[Compound 9-12, 4-[3-[2,6-Dichloro-4-[(2S)-2,4-dimethylpiperazin-1-yl]benzoyl]-2,4-dihydro-1,3-benzoxazin-8-yl]-5-fluoro-2-(3-oxa-8-azabicyclo[3.2.1]octan-8-yl)benzoic acid]", "EC50": 3.1}
{"smiles": "C[C@H]1CN(c2cc(Cl)c(C(=O)N3COc4c(cccc4-c4cc(N5C6CCC5COC6)c(C(=O)O)cc4F)C3)c(Cl)c2)[C@@H](C)CN1C", "note": "[Compound 9-13, 4-[3-[2,6-Dichloro-4-[(2S,5S)-2,4,5-trimethylpiperazin-1-yl]benzoyl]-2,4-dihydro-1,3-benzoxazin-8-yl]-5-fluoro-2-(3-oxa-8-azabicyclo[3.2.1]octan-8-yl)benzoic acid]", "EC50": 6.7}
{"smiles": "CN1CCN(c2cc(Cl)c(C(=O)N3COc4c(cccc4-c4cc(N5C6CCC5COC6)c(C(=O)O)cc4F)C3)c(Cl)c2)C(C)(C)C1", "note": "[Compound 9-14, 4-[3-[2,6-Dichloro-4-(2,2,4-trimethylpiperazin-1-yl)benzoyl]-2,4-dihydro-1,3-benzoxazin-8-yl]-5-fluoro-2-(3-oxa-8-azabicyclo[3.2.1]octan-8-yl)benzoic acid]", "EC50": 11}
{"smiles": "O=C(O)c1cc(F)c(-c2cccc3c2OCN(C(=O)c2c(Cl)cc(N4CCN(C5COC5)C5CC54)cc2Cl)C3)cc1N1C2CCC1COC2", "note": "(centres unmarked) [Compound 9-15, 4-[3-[2,6-Dichloro-4-[5-(oxetan-3-yl)-2,5-diazabicyclo[4.1.0]heptan-2-yl]benzoyl]-2,4-dihydro-1,3-benzoxazin-8-yl]-5-fluoro-2-(3-oxa-8-azabicyclo[3.2.1]octan-8-yl)benzoic acid]", "EC50": 14}
